pIC50: −log10 of the molar value. Read-outs that look alike come from different tables or passages of the source.

The subject of this experiment is cancer cells on SISgel or plastic. Put plainly: Activity of leads and analogs on cancer cells grown on plastic vs SISgel (cell line not stated). The note with it: for Hit: YES/NO; for SR: ratio IC50-p/IC50-S. In kind it is cell-based. As to the method: The NCI library is no longer available in the form used here, but how it was constructed is described (http://dtp.nci.nih.gov/branches/dscb/diversity_explanation.html). The ChemBridge library is a subset (Set Code NM1024) of the full 50,000 compound library (http://www.chembridge.com/screening_libraries/diversity_libraries/). Compounds were diluted to 100 μM before use. SISgel was prepared as described previously from powdered porcine small intestine submucosa obtained from Cook Biotech (W. Lafayette, IN). It is a natural product that is used extensively in tissue engineering as a bioscaffold. J82 bladder cancer cells and other cell lines were obtained from the ATCC (Bethesda, MD). […] Efficacy in vitro was assessed by plating 30,000 cells in 50 μL of high glucose DMEM with penicillin-streptomycin and 10 % fetal calf serum on SISgel in a 96-well plate containing 50 μL of gelled SISgel per well. Cells were allowed to attach and assume the SISgel phenotype for 48 h. A matching plate without SISgel was prepared 24 h later by pipetting 3,000 cells in 100 μL of high glucose DMEM with penicillin-streptomycin and 10 % fetal calf serum into each well of 96 well plate. The cells were allowed to attach and grow for 24 h. […] The cells were exposed to drug in fresh medium for 48 h, at which time the cell number was determined using the CFDA-AM cellular esterase proliferation assay (cat. #C1354, Life Technologies). For screening the results are reported as the ratio of cell count of cells on the plastic surface to the cell count on SISgel. An initial difference of 1.5 fold identified potential hits. All potential hits were confirmed in triplicate. […] Data were analyzed using nonlinear regression to a sigmoid curve with Prism 4 (GraphPad Software, Inc., LaJolla, CA). […]

The mark [1] stands for this setting: cells on SISgel, read-out: IC50-S.
Setting [2] is: cells on plastic, read-out: IC50-p.

For the molecule `O=S(=O)([O-])c1ccccc1N=Nc1c(S(=O)(=O)[O-])cc2cc(S(=O)(=O)[O-])c(N=Nc3ccccc3S(=O)(=O)[O-])c(O)c2c1O.[Na+].[Na+].[Na+].[Na+]` [Sulfanazo II], the Hit result is on record as “YES” and the SR came out at 2. Besides, the pIC50 under setting [1] is 4.47. Further, the pIC50 under setting [2] is 4.24.

On to `O=S(=O)(O)c1ccc(N=Nc2ccc3c(S(=O)(=O)O)cccc3c2O)c2ccccc12.[Na+]` [Chromotrope F4B], for which the Hit entry is reported as “YES” and the SR amounted to 1.8. Further, under setting [1], the pIC50 is 4.30. For the same molecule, the negative logarithm of the IC50 (pIC50) under setting [2] is 4.05.

As for `O=[N+]([O-])c1ccc(N=Nc2c(S(=O)(=O)[O-])cc3cc(S(=O)(=O)[O-])cc(O)c3c2O)cc1.[Na+].[Na+]` [Chromotrope 2B], the Hit result was “YES” and the SR is given as 1.8. Further, under setting [1], the pIC50 was 4.40. In addition, the pIC50 under setting [2] was 4.15.

As to `Cc1ccc(N=Nc2c(O)c(S(=O)(=O)[O-])cc3cc(S(=O)(=O)[O-])ccc23)c(C)c1.[Na+].[Na+]` [Ponceau Xylidine], the Hit entry is given as “YES” and the SR was determined as 2.6. For the same molecule, the pIC50 under setting [1] is 4.82. Further, the pIC50 under setting [2] is 4.42.

On to `O=S(=O)(O)c1cc(O)c2c(N=Nc3c(S(=O)(=O)O)cc4cc(S(=O)(=O)O)cc(N=Nc5c(S(=O)(=O)O)cc6cc(S(=O)(=O)O)cc(O)c6c5O)c4c3O)cc(S(=O)(=O)O)cc2c1` [Calichrome], for which the SR is listed as 1.2. In addition, the pIC50 under setting [1] was 3.43. Besides, under setting [2], the pIC50 was 3.33.

For `O=S(=O)([O-])c1cc(O)c2c(O)c(N=Nc3ccccc3)c(S(=O)(=O)[O-])cc2c1.[Na+].[Na+]` [Chromotrope 2R], the SR came to 0.98. Further, under setting [1], the negative logarithm of the IC50 (pIC50) was 4.03. Moreover, the negative logarithm of the IC50 (pIC50) under setting [2] is 4.04.

`O=S(=O)([O-])c1cc(S(=O)(=O)[O-])c2c(N=Nc3ccc(N=Nc4ccccc4)cc3)c(O)ccc2c1.[Na+].[Na+]` [Brilliant Crocein Moo]: the Hit entry is listed as “YES” and the SR was found to be 1.8. In addition, the pIC50 under setting [1] is 4.33. Under setting [2], the pIC50 was 4.09.

As for `O=S(=O)(O)c1cc(Cl)cc(N=Nc2c(S(=O)(=O)O)cc3cc(S(=O)(=O)O)c(N=Nc4cc(Cl)cc(S(=O)(=O)O)c4O)c(O)c3c2O)c1O` [Sulfochlorophenol S], the Hit entry is “YES” and the SR came out at 2.0. Besides, under setting [1], the pIC50 is 4.64. The pIC50 under setting [2] was 4.34.

For `CCN(CC)c1ccc(C(=C2C=CC(=[N+](CC)CC)C=C2)c2ccc(S(=O)(=O)[O-])cc2S(=O)(=O)[O-])cc1.[Na+]` [Acid Blue 1], the SR was determined as 1.6. Moreover, the pIC50 under setting [1] was 3.71. In addition, the pIC50 under setting [2] is 3.50.

With `CC(=O)Nc1ccc(N=Nc2c(S(=O)(=O)[O-])cc3cc(S(=O)(=O)[O-])cc(O)c3c2O)cc1.[Na+].[Na+]` [Chromotrope 6B], the Hit result was “YES” and the SR came to 2.1. Besides, the pIC50 under setting [1] was 4.47. In addition, the pIC50 under setting [2] was 4.15.

As to `O=S(=O)(O)c1cc2cc(S(=O)(=O)O)c(N=Nc3ccccc3[As](=O)(O)O)c(O)c2c(O)c1N=Nc1ccccc1[As](=O)(O)O` [Arsenazo III], the SR is on record as 1.4. Also, the pIC50 under setting [1] is 4.47. Also, under setting [2], the pIC50 is 4.33.

Regarding `Cn1c(=O)c2[nH]c(-c3ccc(S(=O)(=O)O)cc3)nc2n(C)c1=O.O` [8-(p-Sulfophenyl)theophylline hydrate], the SR is 2.5. Besides, the pIC50 (read-out: IC50-S) is 3.85. Further, the pIC50 (read-out: IC50-p) was 3.46.

Take `O=S(=O)([O-])c1ccc2c(N=Nc3c(O)cc(S(=O)(=O)[O-])c4ccccc34)c(O)c(S(=O)(=O)[O-])cc2c1.[Na+].[Na+].[Na+]` [HydroxyNapthol Blue]: the Hit result is on record as “YES” and the SR was 2.1. Further, the pIC50 under setting [1] was 4.19. Besides, the pIC50 under setting [2] is 3.87.

Take `Nc1c(N=Nc2cccc([N+](=O)[O-])c2)c(S(=O)(=O)[O-])cc2cc(S(=O)(=O)[O-])c(N=Nc3ccccc3)c(O)c12.[Na+].[Na+]` [Acid Blue 29]: the SR is 1.7. The pIC50 under setting [1] is 3.91. Also, under setting [2], the pIC50 was 3.67.

For nitrazine Yellow, the Hit entry was “YES” and the SR is recorded as 2.0. Under setting [1], the pIC50 was 4.48. Besides, under setting [2], the pIC50 was 4.19.

In the case of `CCN(Cc1cccc(S(=O)(=O)[O-])c1)c1ccc(C(=C2C=CC(=[N+](C)C)C=C2)c2ccc(N(CC)Cc3cccc(S(=O)(=O)O)c3)cc2)cc1.[Na]` [Acid Violet 49], the SR amounted to 0.75. Besides, the pIC50 under setting [1] was 4.07. Also, the negative-log IC50 (pIC50) under setting [2] is 4.19.

On to `O=S(=O)([O-])c1cc(S(=O)(=O)[O-])c2c(N=Nc3ccc(S(=O)(=O)[O-])c4ccccc34)c(O)ccc2c1.[Na+].[Na+].[Na+]` [New Coccine], for which the Hit result is reported as “YES” and the SR is on record as 1.6. Besides, the pIC50 under setting [1] is 4.57. Besides, the pIC50 under setting [2] is 4.37.

Regarding `Cc1nc(N=Nc2ccc(S(=O)(=O)O)cc2S(=O)(=O)O)c(COP(=O)(O)O)c(C=O)c1O` [PPADS], the SR is reported as 1.4. Further, the pIC50 under setting [1] was 3.53. Also, under setting [2], the pIC50 was 3.38.

With `CC(=O)Nc1ccc(N=Nc2c(N)ccc3cc(S(=O)(=O)O)cc(O)c23)c(S(=O)(=O)O)c1.N.N` [Acid Red 37], the Hit result is “YES” and the SR is on record as 1.7. The pIC50 under setting [1] was 4.29. Moreover, the negative-log IC50 (pIC50) under setting [2] is 4.07.

On to `O=S(=O)(O)c1ccc2c(O)c(N=Nc3cccc4ccccc34)c(S(=O)(=O)O)cc2c1.[Na+]` [Acid Dye (Azo Red)], for which the SR was found to be 1. In addition, the pIC50 under setting [1] is 4.68. Also, the pIC50 under setting [2] is 4.64.

For `CCOc1ccc(Nc2ccc(C(=C3C=CC(=[N+](CC)Cc4cccc(S(=O)(=O)[O-])c4)C=C3C)c3ccc(N(CC)Cc4cccc(S(=O)(=O)[O-])c4)cc3C)cc2)cc1.[Na+]` [Comassie Brilliant Blue], the SR was 1.6. Further, the negative-log IC50 (pIC50) under setting [1] is 3.90. Moreover, the pIC50 under setting [2] is 3.70.

For `Cc1cc(-c2ccc(/N=N/c3c(S(=O)(=O)O)cc4cc(S(=O)(=O)O)cc(N)c4c3O)c(C)c2)ccc1/N=N/c1c(S(=O)(=O)O)cc2cc(S(=O)(=O)O)cc(N)c2c1O` [Trypan Blue], the Hit entry was “YES” and the SR is 4.5. Further, the pIC50 under setting [1] was 4.44. Also, the pIC50 under setting [2] was 3.80.

`CCN(Cc1cccc(S(=O)(=O)[O-])c1)c1ccc(C(=C2C=CC(=[N+](CC)Cc3cccc(S(=O)(=O)[O-])c3)C=C2)c2ccc(S(=O)(=O)[O-])cc2)cc1.[Na+].[Na+]` [Light Green SF Yellowish]: the SR was determined as 2. For the same molecule, the pIC50 under setting [1] is 3.50. The pIC50 under setting [2] is 3.20.

Regarding `CCN(Cc1cccc(S(=O)(=O)[O-])c1)c1ccc(C(=C2C=CC(=[N+](CC)Cc3cccc(S(=O)(=O)[O-])c3)C=C2)c2ccccc2)cc1.[Na+]` [Acid Green 3], the SR is 0.74. For the same molecule, under setting [1], the negative logarithm of the IC50 (pIC50) is 3.18. Moreover, under setting [2], the pIC50 is 3.31.

In the case of `O=S(=O)([O-])c1ccc(N=Nc2c(S(=O)(=O)[O-])cc3cc(S(=O)(=O)[O-])cc(O)c3c2O)cc1.[Na+].[Na+].[Na+]` [Sulfanilic Acid Azochromotrop], the Hit entry is reported as “YES” and the SR amounted to 2.0. For the same molecule, under setting [1], the pIC50 was 4.72. Under setting [2], the pIC50 is 4.42.

Consider `Cc1ccc(NC(=O)c2cc3ccccc3c(N=Nc3cc(S(=O)(=O)[O-])ccc3O)c2O)c(C)c1.[Na+]` [Xylidyl Blue 1], for which the Hit result is on record as “YES” and the SR turned out to be 2.4. Moreover, the pIC50 under setting [1] was 4.35. Also, the pIC50 under setting [2] was 3.97.

In the case of `O=S(=O)([O-])c1cc(Cl)cc(N=Nc2ccc3c(S(=O)(=O)[O-])cccc3c2O)c1O.[Na+].[Na+]` [Mordant Blue 9], the SR was found to be 1.8. For the same molecule, the pIC50 under setting [1] was 3.75. Also, under setting [2], the pIC50 was 3.49.

On to `O=S(=O)([O-])c1ccc2c(N=Nc3ccc(S(=O)(=O)[O-])c4ccccc34)c(O)c(S(=O)(=O)[O-])cc2c1.[Na+].[Na+].[Na+]` [Amaranthe], for which the SR is on record as 1.3. The negative-log IC50 (pIC50) under setting [1] was 4.59. Also, the pIC50 under setting [2] was 4.48.

As to `Cc1ccc(N=Nc2c(O)c(S(=O)(=O)[O-])cc3cc(S(=O)(=O)[O-])ccc23)c(C)c1.[Na+].[Na+]` [Acid Red 26], the SR is on record as 0.26. For the same molecule, the pIC50 under setting [1] was 3.22. Under setting [2], the negative-log IC50 (pIC50) is 3.81.

Consider `CC(=O)Nc1cc(S(=O)(=O)[O-])cc2cc(S(=O)(=O)[O-])c(N=Nc3ccccc3)c(O)c12.[Na+].[Na+]` [Acid Red 1], for which the Hit entry is given as “YES” and the SR is reported as 2.6. Moreover, the pIC50 under setting [1] was 4.89. The pIC50 under setting [2] is 4.48.

In the case of `O=S(=O)([O-])c1ccc(N=Nc2c(O)ccc3cc(S(=O)(=O)[O-])ccc23)cc1.[Na+].[Na+]` [Sunset Yellow FCF], the Hit entry is recorded as “YES” and the SR was 2.2. Under setting [1], the pIC50 was 4.51. Also, the pIC50 under setting [2] is 4.17.

These data come from article PMC4434572, “Identification of novel drugs to target dormant micrometastases” (BMC Cancer, 2015).
